Here are results for seven compounds from patent US5374711A, “Chemical modification of 2"-amino group in elsamicin a” (Bristol-Myers Squibb Company, priority 1993, dated 1994).

≈ marks a conversion by molar mass, not a printed value. Where a name gives a salt, the structure may show the parent alone. Bounds are passed on as bounds.

The subject of assay [1] is lymphocytic leukemia P388. Put plainly: In vivo antitumor activity against P388 leukemia in mice (ip, Q1Dx3). Details: species or system mice (female CDF1). The following applies: for T/C % of MST / prolongation of life-span in the P388-bearing mice: Q1Dx3, ip; for times less active than the parent compound in terms of minimum effective doses (MED): P388, vs elsamicin A. On the procedure: (§1) Among the derivatives tested, in vivo antitumor activity of six derivatives showing relatively potent cytotoxicity was tested in the lymphocytic leukemia P388 and B16 melanoma systems. Female CDF1 (for P388) and male BDF1 (for B16) mice were inoculated by ip injection at 10^6 P388 cells and 0.5 ml of a 10% B16 brei per mouse, respectively (day 0). […] The percent increase of median survival time (MST) of treated animals over that of untreated control animals was determined and reported as T/C %. Compounds showing T/C % values of 125 or greater are considered to have significant antitumor activity. […] The others had no activity at the doses tested. Derivatives 4d4e, and 5 when tested in the B16 system, also gave 10- 30 times less antitumor activity than elsamicin A in terms of MED (Table 5).

In another assay the test system is anaerobic bacteria. The following applies: cited from earlier work.
The test system of the next assay is B16 melanoma. Put plainly: In vivo antitumor activity against B16 melanoma in mice (ip, Q4Dx3). Details: species or system mice (male BDF1). The note with it: for times less antitumor activity than elsamicin A in terms of MED: B16, vs elsamicin A. The procedure: as §1
The next assay concerns leukemia P388. The note with it: in vitro and in vivo; cited from earlier work.
The next assay concerns lymphoid leukemia L1210. The note with it: in vitro and in vivo; cited from earlier work.
Assay [2] concerns murine melanoma B16-F10 cells. Put plainly: cells. The note with it: Mus musculus, B16-F10, 72 h, read-out: Cytotoxicity IC50.
Procedure: For in vitro cytotoxicity experiment, murine melanoma B16-F10 cells were grown and maintained in Eagle's minimum essential medium (Nissui), which contains kanamycin (60 μg/ml), supplemented with heat-inactivated fetal calf serum (10%) and nonessential amino acids (0.6%) at 37° C. under a humidified atmosphere in a 5% CO2 incubator, Exponentially growing B16-F10 cells were harvested, counted and suspended in the culture medium at the concentration of 2.0×10^4 cells/ml. The cell suspension (180 μl) was planted into wells of a 96-well microtiter plate and incubated for 24 hours. Test compounds (20 μl) were added to the wells and the plates were further incubated for 72 hours. The cytotoxic activity was colorimetrically determined at 540 nm after staining viable cells with neutral red solution.
In assay [3] the test system is aerobic gram-positive bacteria. The following applies: cited from earlier work.
For another assay, the system named is melanotic melanoma B16. The note with it: in vitro and in vivo; cited from earlier work.

`CO[C@H]1[C@@H](O)[C@@H](C)O[C@H](O[C@H]2[C@H](Oc3cccc4c(O)c5c(=O)oc6ccc(C)c7c(=O)oc(c34)c5c67)O[C@H](C)[C@H](O)[C@]2(C)O)[C@@H]1N1CCOCC1` [Compound 4f, 2"-Deamino-2"-morpholinoelsamicin A]: the “T/C % of MST” value was 100% in assay [1] (1 mg/kg/day), 105% in assay [1] (3 mg/kg/day) and 100% in assay [1] (10 mg/kg/day).
The IC50 is the concentration needed to halve the response being measured. In the case of `CO[C@@H]1[C@@H](N)[C@@H](O[C@H]2[C@H](Oc3cccc4c(O)c5c(=O)oc6ccc(C)c7c(=O)oc(c34)c5c67)O[C@H](C)[C@H](O)[C@]2(C)O)O[C@H](C)[C@@H]1O` [Compound 1, Elsamicin A], the “T/C % of MST” value in assay [1] (0.1 mg/kg/day) is reported as 120%; in assay [1] (0.3 mg/kg/day) it was 137%; in assay [1] (1 mg/kg/day), 150%; in assay [1] (3 mg/kg/day), 170%; in assay [1] (10 mg/kg/day), 205%; in assay [1] (20 mg/kg/day), “Tox”. In addition, the “T/C % of MST” value is 115% in the assay on B16 melanoma (0.1 mg/kg/day, Q4Dx3 ip); 128% with B16 melanoma (0.3 mg/kg/day, Q4Dx3 ip); 168% with B16 melanoma (1 mg/kg/day, Q4Dx3 ip); 208% in the assay with B16 melanoma (3 mg/kg/day, Q4Dx3 ip); no less than 282% in the assay on B16 melanoma (10 mg/kg/day, Q4Dx3 ip). In addition, the antibacterial activity result (with anaerobic bacteria; in assay [3]) was “exhibits antibacterial activity” throughout. Besides, the “No. of survivors/tested on day 50” value in the assay with B16 melanoma (10 mg/kg/day, Q4Dx3 ip, day 50) was 4/8. The “activity against murine tumor cells” value in the assay with leukemia P388, in the assay on lymphoid leukemia L1210 and with melanotic melanoma B16 was “exerts activity” each time. In addition, the IC50 in assay [2] was 0.07 µg/mL (≈ 0.107 µM).
Take `CO[C@H]1[C@@H](O)[C@@H](C)O[C@H](O[C@H]2[C@H](Oc3cccc4c(O)c5c(=O)oc6ccc(C)c7c(=O)oc(c34)c5c67)O[C@H](C)[C@H](O)[C@]2(C)O)[C@@H]1N(C)C` [Compound 4e, 2"-N,N-Dimethylelsamicin A]: the “T/C % of MST” value in assay [1] (1 mg/kg/day) was 110%; in assay [1] (3 mg/kg/day) it was 130%; in assay [1] (10 mg/kg/day) it was 140%; in the assay on B16 melanoma (1 mg/kg/day, Q4Dx3 ip), 103%; in the assay with B16 melanoma (3 mg/kg/day, Q4Dx3 ip) it was 109%; in the assay with B16 melanoma (10 mg/kg/day, Q4Dx3 ip), 132%. Besides, the “times less active than the parent compound in terms of minimum effective doses (MED)” value in assay [1] was 10-30 times. In addition, the “prolongation of life-span in the P388-bearing mice” value (shortened to “prolongation of life-span”) in assay [1] is on record as “quite limited prolongation of life-span”. The “times less antitumor activity than elsamicin A in terms of MED” value in the assay on B16 melanoma is given as 10- 30 times.
In the case of `CO[C@H]1[C@@H](O)[C@@H](C)O[C@H](O[C@H]2[C@H](Oc3cccc4c(O)c5c(=O)oc6ccc(C)c7c(=O)oc(c34)c5c67)O[C@H](C)[C@H](O)[C@]2(C)O)[C@@H]1NC(C)C` [Compound 4a, 2"-N-Isopropylelsamicin A], the “T/C % of MST” value in assay [1] (1 mg/kg/day) is recorded as 110%; in assay [1] (3 mg/kg/day) it was 120%; in assay [1] (10 mg/kg/day), 140%. Further, the “times less active than the parent compound in terms of minimum effective doses (MED)” value in assay [1] was 10-30 times. Also, the “prolongation of life-span” value in assay [1] is “quite limited prolongation of life-span”.
Turning to `CO[C@H]1[C@@H](O)[C@@H](C)O[C@H](O[C@H]2[C@H](Oc3cccc4c(O)c5c(=O)oc6ccc(C)c7c(=O)oc(c34)c5c67)O[C@H](C)[C@H](O)[C@]2(C)O)[C@@H]1NC=N` [Compound 5, 2"-N-Formimidoylelsamicin A hydrochloride], the “T/C % of MST” value is listed as 100% in assay [1] (0.1 mg/kg/day); 100% in assay [1] (0.3 mg/kg/day); 120% in assay [1] (1 mg/kg/day); 130% in assay [1] (3 mg/kg/day); 140% in assay [1] (10 mg/kg/day); 100% with B16 melanoma (0.3 mg/kg/day, Q4Dx3 ip). In addition, the “T/C % of MST” value turned out to be 103% with B16 melanoma (1 mg/kg/day, Q4Dx3 ip); 126% in the assay with B16 melanoma (3 mg/kg/day, Q4Dx3 ip); 150% with B16 melanoma (10 mg/kg/day, Q4Dx3 ip). The “times less active than the parent compound in terms of minimum effective doses (MED)” value in assay [1] is on record as 10-30 times. Besides, the “prolongation of life-span” value in assay [1] is “quite limited prolongation of life-span”. Besides, the “times less antitumor activity than elsamicin A in terms of MED” value in the assay on B16 melanoma is given as 10- 30 times.
On to `CN[C@H]1[C@@H](O[C@H]2[C@H](Oc3cccc4c(O)c5c(=O)oc6ccc(C)c7c(=O)oc(c34)c5c67)O[C@H](C)[C@H](O)[C@]2(C)O)O[C@H](C)[C@H](O)[C@@H]1OC` [Compound 4d, 2"-N-Methylelsamicin A], for which the “T/C % of MST” value in assay [1] (0.1 mg/kg/day) came to 100%; in assay [1] (0.3 mg/kg/day), 100%; in assay [1] (1 mg/kg/day) it was 120%; in assay [1] (3 mg/kg/day), 130%; in assay [1] (10 mg/kg/day), 145%; with B16 melanoma (0.3 mg/kg/day, Q4Dx3 ip), 106%. The “T/C % of MST” value is 100% with B16 melanoma (1 mg/kg/day, Q4Dx3 ip); 115% in the assay on B16 melanoma (3 mg/kg/day, Q4Dx3 ip); 135% in the assay on B16 melanoma (10 mg/kg/day, Q4Dx3 ip). Moreover, the “times less active than the parent compound in terms of minimum effective doses (MED)” value in assay [1] is given as 10-30 times. Besides, in assay [1], the “prolongation of life-span” value is “quite limited prolongation of life-span”. Also, the “times less antitumor activity than elsamicin A in terms of MED” value with B16 melanoma is 10- 30 times.
As for `CO[C@H]1[C@@H](O)[C@@H](C)O[C@H](O[C@H]2[C@H](Oc3cccc4c(O)c5c(=O)oc6ccc(C)c7c(=O)oc(c34)c5c67)O[C@H](C)[C@H](O)[C@]2(C)O)[C@@H]1NC(=O)CN` [Compound 3d, 2"-N-Glycylelsamicin A], the “T/C % of MST” value in assay [1] (1 mg/kg/day) was found to be 95%; in assay [1] (3 mg/kg/day) it was 110%; in assay [1] (10 mg/kg/day), 110%.
